{"source": "paper PMC5666006", "about": "“Combating virulence of Gram-negative bacilli by OmpA inhibition” (Scientific Reports, 2017)", "key": {"[1]": {"system": "E. coli ATCC 25922", "experiment": "Bacterial cytotoxicity on A549 cells, MTT assay", "type": "cell-based", "details": "E. coli ATCC 25922 pretreated with 0.25 or 0.5 mg/mL, 24 h", "procedure": "(§1) Bacterial cytotoxicity. […] Prior the evaluation of bacterial cytotoxicity, we firstly removed viable bacteria from A549 cells cultures and washed A549 cells five times with pre-warmed PBS. Then, cellular viability was assessed as indicated above."}, "[2]": {"system": "A. baumannii ATCC 17978", "experiment": "Bacterial cytotoxicity on A549 cells, MTT assay", "type": "cell-based", "details": "A. baumannii ATCC 17978 pretreated with 0.25 or 0.5 mg/mL, 24 h", "procedure": "as §1"}, "[3]": {"system": "P. aeruginosa PaO1", "experiment": "Bacterial cytotoxicity on A549 cells, MTT assay", "type": "cell-based", "details": "P. aeruginosa PaO1 pretreated with 0.25 or 0.5 mg/mL, 24 h", "procedure": "as §1"}, "[4]": {"molecular_target": "T1, E. coli OmpA (Escherichia coli, UniProt P0A910)", "T1 construct": "A recombinant 37 kDa polypeptide fragment containing the transmembrane and periplasmatic domains of the E. coli OmpA protein; purchased NovoPro (China)", "T1 sequence (P0A910 22-346)": "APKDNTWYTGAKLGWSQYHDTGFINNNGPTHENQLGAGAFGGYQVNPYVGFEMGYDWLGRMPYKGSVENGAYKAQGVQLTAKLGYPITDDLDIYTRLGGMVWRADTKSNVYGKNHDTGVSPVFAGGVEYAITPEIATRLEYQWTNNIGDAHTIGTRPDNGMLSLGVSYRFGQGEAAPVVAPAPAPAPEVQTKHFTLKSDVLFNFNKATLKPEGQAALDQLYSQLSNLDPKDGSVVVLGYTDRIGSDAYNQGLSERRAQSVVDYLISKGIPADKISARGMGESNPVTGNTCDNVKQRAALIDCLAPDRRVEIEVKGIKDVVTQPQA", "experiment": "NMR detection of binding (1H, STD, PFG diffusion)", "details": "AOA-2 750 μM, OmpA 8 μM, 1 mM Triton X-100, pH 7.3, 25 °C", "procedure": "A recombinant 37 kDa polypeptide fragment containing the transmembrane and periplasmatic domains of the E. coli OmpA protein was purchased from NovoPro (China). OmpA samples contained Triton X-100 to mimic the membrane environment.\nAll NMR experiments were recorded at 25 °C on a Bruker Avance 800 MHz spectrometer equipped with a cryoprobe.\nSaturation transfer difference[38] (STD) experiments were obtained using a pseudo-2D pulse sequence for the interleaved acquisition of on-resonance and off-resonance spectra. Total saturation time was 3 seconds. Suppression of the residual water signal was achieved by excitation sculpting.\nDiffusion NMR experiments were performed using the LED pulse sequence[40] with gradient lengths of 3 ms and a diffusion delay of 110 ms. The total inter-scan delay was 4.5 s."}, "[5]": {"system": "E. coli ATCC 25922", "experiment": "Adhesion of bacteria to A549 cells", "type": "cell-based", "details": "0.25 or 0.5 mg/mL, 2 h", "procedure": "(§2) Subsequently, infected A549 cells were washed five times with pre-warmed PBS and lysed with 0.5% Triton X-100. Diluted lysates were plated onto blood agar (Blood-Agar Columbia, Becton Dickinson Microbiology Systems, USA) and incubated at 37 °C for 24 h for enumeration of developed colonies and then the determination of the number of bacteria that attached to A549 cells."}, "[6]": {"system": "P. aeruginosa PaO1", "experiment": "Adhesion of bacteria to A549 cells", "type": "cell-based", "details": "0.25 or 0.5 mg/mL, 2 h", "procedure": "as §2"}, "[7]": {"experiment": "AOA-2 in vivo toxicity (Reed and Munch method)", "design": "species or system mouse", "details": "female, C57BL/6, mouse, in vivo, ip, mice, single i.p. dose, groups of six, survival one week", "procedure": "(§3) Animals were housed in regulation cages with food and water ad libitum. This study was carried out in strict accordance with the recommendations in the Guide for the Care and Use of Laboratory Animals[41]. The protocol was approved by the Committee on the Ethics of Animal Experiments of the University Hospital of Virgen del Rocío, Seville (2012PI/238). All surgery was performed under sodium thiopental anaesthesia, and all efforts were made to minimize suffering.\n(§4) The Reed and Munch method was used[42]. […] LD50 value was determined using the Probit method.\n(§5) 20, 40, 80 or 160 mg/kg. Mice survival was monitored for a one week and lethal doses (LD) 0,\n(§6) 50 and 100 were calculated."}, "[8]": {"system": "C57BL/6 female mice", "experiment": "AOA-2 in vivo toxicity (Reed and Munch method)", "design": "species or system mouse", "procedure": "as §3, §4, §5, §6"}, "[9]": {"experiment": "AOA-2 pharmacokinetics in serum", "details": "mouse, in vivo, ip, 10 mg/kg"}, "[10]": {"system": "E. coli ATCC 25922", "type": "cell-based", "procedure": "(§7) In the initial screening, the bactericidal activity of the synthetic peptides and their toxicity on human lung epithelial cells (A549) were evaluated.\n(§8) Table S1. MICs of the six hexapeptides for A. baumannii and E. coli.\n(§9) Peptides P. aeruginosa PaO1\n(§10) MIC: minimal inhibitory concentration"}, "[11]": {"system": "A. baumannii ATCC 17978", "type": "cell-based", "procedure": "as §7, §8, §9, §10"}, "[12]": {"system": "P. aeruginosa PaO1", "type": "cell-based", "procedure": "as §7, §8, §9, §10"}, "[13]": {"system": "E. coli ATCC 25922", "experiment": "Fibronectin-binding assay", "type": "cell-based", "details": "E. coli ATCC 25922, 0.25 or 0.5 mg/mL, 2 h", "procedure": "(§11) Fibronectin-binding assay was performed as described previously. Briefly, A. baumannii ATCC 17978, P. aeruginosa PaO1, and E. coli ATCC 25922 grown overnight at 37 °C in LB were resuspended in PBS and collected by centrifugation at 5,000 × g for 10 min. […] Then, 50 µL of bacterial suspension were mixed with 50 µL of PBS, added to fibronectin coated wells and incubated 2 h at room temperature for bacterial adsorption. Non-adhered bacteria were discarded and wells were washed six times with sterile PBS to remove unbound bacteria. Adherent bacteria were then collected with 125 µL of sterile PBS containing 0.5% Triton X-100. Diluted lysates were plated onto sheep blood agar and incubated at 37 °C for 24 h for enumeration of developed colonies and then the determination of the number of bacteria that attached to fibronectin."}, "[14]": {"system": "A. baumannii ATCC 17978", "experiment": "Fibronectin-binding assay", "type": "cell-based", "details": "A. baumannii ATCC 17978, 0.25 or 0.5 mg/mL, 2 h", "procedure": "as §11"}, "[15]": {"system": "P. aeruginosa PaO1", "experiment": "Fibronectin-binding assay", "type": "cell-based", "details": "P. aeruginosa PaO1, 0.25 or 0.5 mg/mL, 2 h", "procedure": "as §11"}, "[16]": {"system": "E. coli ATCC 25922", "experiment": "Time kill curves", "type": "cell-based", "details": "0.25–1 mg/mL", "excerpt": "(§12) Figure S4. Time kill curves of A. baumannii ATCC 17978, P. aeruginosa PaO1, and E. coli\n(§13) (also on this page, place not known: Bacterial concentration ( Log CFU/mL) Bacterial concentration ( Log CFU/mL) Bacterial concentration ( Log CFU/mL))"}, "[17]": {"system": "A. baumannii ATCC 17978", "experiment": "Time kill curves", "type": "cell-based", "details": "0.25–1 mg/mL", "excerpt": "as §12, §13"}, "[18]": {"system": "P. aeruginosa PaO1", "experiment": "Time kill curves", "type": "cell-based", "details": "0.25–1 mg/mL", "excerpt": "as §12, §13"}}, "note": "Where a SMILES comes first, the peptide text is derived from it. [ ]: non-standard residue; d: D form.", "data": [{"compound": "N=C(N)NCCC[C@@H]1NC(=O)[C@H]2CCCN2C(=O)[C@H](Cc2c[nH]c3ccccc23)NC(=O)[C@H](CCCNC(=N)N)NC(=O)[C@H]2CCCN2C(=O)[C@H](Cc2c[nH]c3ccccc23)NC1=O", "note": "[AOA-2] (cyclo(RW[dP]RW[dP]))", "values": [{"measurement": "A549 cell death induced by bacteria (in words)", "setting": "[1]", "result": "failure"}, {"measurement": "A549 cell death induced by bacteria (in words)", "setting": "[2]", "result": "prevented cell death"}, {"measurement": "A549 cell death induced by bacteria (in words)", "setting": "[3]", "result": "prevented cell death"}, {"measurement": "binding to OmpA by NMR (in words)", "setting": "[4]", "result": "interacting with OmpA"}, {"measurement": "adherence of E. coli to A549 cells (in words)", "setting": "[5]", "result": "significant reduction in adherence"}, {"measurement": "adherence of P. aeruginosa to A549 cells (in words)", "setting": "[6]", "result": "significant reduction in adherence"}, {"measurement": "LD50 at 168 h", "setting": "[7]; Probit method", "result": 85, "unit": "mg/kg"}, {"measurement": "MTD at 168 h", "setting": "[7]; read-out: LD0 (maximum tolerated dose)", "result": 40, "unit": "mg/kg"}, {"measurement": "dose without any evidence of toxicity", "setting": "[8]; i.p.", "result": "≤ 40", "unit": "mg/kg"}, {"measurement": "LD100", "setting": "[8]; single i.p. dose, groups of six, survival one week", "result": 160, "unit": "mg/kg"}, {"measurement": "half-life", "setting": "[9]", "result": 56, "unit": "min"}, {"measurement": "MIC", "setting": "[10]", "result": "> 500", "unit": "µg/mL"}, {"measurement": "MIC", "setting": "[11]", "result": "> 500", "unit": "µg/mL"}, {"measurement": "MIC", "setting": "[12]", "result": "> 500", "unit": "µg/mL"}, {"measurement": "bacterial adherence to fibronectin (in words)", "setting": "[13]", "result": "significant decrease in the bacterial adherence to fibronectin"}, {"measurement": "bacterial adherence to fibronectin (in words)", "setting": "[14]", "result": "significant decrease in the bacterial adherence to fibronectin"}, {"measurement": "bacterial adherence to fibronectin (in words)", "setting": "[15]", "result": "significant decrease in the bacterial adherence to fibronectin"}, {"measurement": "bacteriostatic activity (in words)", "setting": "[16]", "result": "intermediate behaviour"}, {"measurement": "bacteriostatic activity (in words)", "setting": "[17]", "result": "poor bacteriostatic activity"}, {"measurement": "bacteriostatic activity (in words)", "setting": "[18]", "result": "relevant bacteriostatic activity"}]}]}
